Results taken from patent US20100222421A1, “Usage of Baicalein in the Preparation of a Pharmaceutical Composition for the Treatment of Traumatic Brain Injury” (National Defense Medical Center, priority 2009, published 2010).

Test system: IL-6 mRNA
Test: Real-time quantitative RT-PCR, IL-6 mRNA after CCI injury
Assay type: in vivo, rat
Conditions: single-dose 30 mg kg^-1 i.p.; ipsilateral cortex, 6 h after injury; P<0.05
Method: A previously described CCI injury procedure was utilized (Chen et al., 2003). Male Sprague-Dawley rats, which have body weight of 250-300 g, were anaesthetized with sodium pentobarbital (i.p.; 50 mgkg^−1; Rhone Merieux, Harlow, UK) and placed in a stereotaxic frame. A 5-mm craniotomy was performed over the left parietal cortex, centered on the coronal suture and 3 mm lateral to the sagittal suture. Considerable care was taken to avoid injury to the underlying dura. Injury was made using a pneumatic piston with a rounded metal tip (2.5 mm diameter) that was angled 22.5° C. to the vertical so that the tip was perpendicular with the brain surface at the centre of the craniotomy. A velocity of 4 ms^−1 and a deformation depth 2 mm below the dura were used. […] Body temperature was monitored throughout the surgery by a rectal probe; temperature was maintained at 37.0±0.5° C. using a heated pad. […] Testing after injury was as follows: (1) real-time quantitative RT-PCR analysis for TNF-α, IL-1β and IL-6 mRNA expression at 6 h post-injury (n=7 for each group); (2) FluoroJade B (FJB) staining, TNF-α, IL-1β and IL-6 immunohistochemistry, as well as ELISA at 24 h post-injury to assess degenerative neurons and to determine cytokine expression (n=7 for each group). […] Approximately 50 mg tissue was collected from the ipsilateral (injured) hemisphere and processed for real-time quantitative RT-PCR. […]

O=c1cc(-c2ccccc2)oc2cc(O)c(O)c(O)c12 [baicalein]
IL-6 mRNA level, % of level in vehicle-treated injured rats: 43.6%
